Measured values as given in paper PMC5902452, “In silico optimization of a guava antimicrobial peptide enables combinatorial exploration for peptide design” (Nature Communications, 2018).
Values after ≈ are worked out from the molar mass of the structure shown. Peptide text beside a SMILES is read from it.

Columns and labels:
[1] = system: P. aeruginosa H1001 (fliC::luxCDABE); assay type: cell-based, Pseudomonas aeruginosa; settings: SPOT-synthesized unpurified crude peptide (~70% purity); bioluminescent engineered P. aeruginosa; BM2 medium; 4 h, 37 °C; reduction of luminescence; 200 to 3 μg mL−1 tested
Method: A peptide array composed of 20 peptides (15 guavanins, 4 Pg-AMP1 fragments, and magainin 2) was designed and synthesized by Kinexus Bioinformatics Corporation (Vancouver, BC). Peptides were produced in a standard mass of 80 μg by using cellulose support in SPOT technology. The crude synthetic peptides were obtained from cellulose membrane discs that had already been treated with ammonia gas to release the peptides from the membrane. Peptides were then dissolved overnight in distilled water and subsequently evaluated for their biological activities, as described below.
The antimicrobial activity of the synthesized peptides was evaluated against an engineered luminescent P. aeruginosa H1001 (fliC::luxCDABE) strain in 96-well microplates. Aqueous solutions of peptides released from the cellulose spots were diluted twofold in BM2 medium [62 mM potassium phosphate buffer pH 7; 2 mM MgSO4; 10 μM FeSO4; 0.4% (wt/vol) glucose] down the eight wells of a 96-well plate, achieving a final volume of 25 μL in each well. Subsequently, 50 μL of overnight culture of P. aeruginosa H1001 (fliC::luxCDABE) were subcultured in 5 mL of fresh LB media and grown until they reached an OD600 of 0.4. This growing bacteria culture was then diluted 4:100 (v/v) into fresh BM2 media and 25 μL of this diluted bacterial culture was transferred to the microplate wells containing 25 μL of peptide solution. The final peptide concentrations tested ranged from 200 to 3 μg mL^−1. The plates were incubated for 4 h at 37 °C with constant shaking at 50 rpm. Luminescence was measured on a Tecan […]luor Plus Microplate Reader (Tecan US, Morrisville, NC). The antimicrobial activity was evaluated by the ability of the peptides to reduce the luminescence of P. aeruginosa-lux strain compared to untreated cells. The AMP magainin 2 and the carbapenem meropenem were used as positive controls and distilled water was used as a negative control.

human erythrocytes = test: Hemolytic assay; settings: SPOT-synthesized crude peptides; human red blood cells in NaCl 0.85%, 1 h, 37 °C; hemoglobin release at 546 nm; highest concentration 200 μg mL−1; 100% of hemolysis was not observed

SMILES | MIC [1] | Hemolysis (human erythrocytes)
CC[C@H](C)[C@H](NC(=O)[C@H](C)NC(=O)[C@H](CCC(N)=O)NC(=O)[C@H](CCC(=O)O)NC(=O)[C@H](Cc1ccc(O)cc1)NC(=O)[C@H](CC(C)C)NC(=O)[C@H](CCC(=O)O)NC(=O)[C@H](CCSC)NC(=O)[C@H](CC(C)C)NC(=O)[C@H](CCCCN)NC(=O)[C@@H](N)CCCNC(=N)N)C(=O)N[C@@H](CCCNC(=N)N)C(=O)N[C@@H](Cc1ccc(O)cc1)C(=O)NCC(=O)N[C@@H](CCCCN)C(=O)N[C@@H](CCCNC(=N)N)C(=O)N[C@@H](CO)C(=O)N[C@@H](Cc1ccc(O)cc1)C(=O)N[C@@H](CCCNC(=N)N)C(=O)N[C@@H](CCCNC(=N)N)C(N)=O [Guavanin 12] (H-RKLMELYEQAIRYGKRSYRR-NH2) | 25 µg/mL (≈ 9.56 µM) | > 200 µg/mL
CC[C@H](C)[C@H](NC(=O)[C@H](CC(C)C)NC(=O)[C@H](CCC(=O)O)NC(=O)[C@H](CCSC)NC(=O)[C@H](CC(C)C)NC(=O)[C@H](CCC(N)=O)NC(=O)[C@@H](N)CCCNC(=N)N)C(=O)N[C@@H](CCC(=O)O)C(=O)N[C@@H](CCC(N)=O)C(=O)N[C@@H](C)C(=O)N[C@@H](CCC(=O)O)C(=O)N[C@@H](CCCNC(=N)N)C(=O)N[C@@H](Cc1ccc(O)cc1)C(=O)NCC(=O)N[C@@H](CC(N)=O)C(=O)N[C@@H](CCCNC(=N)N)C(=O)N[C@@H](Cc1ccccc1)C(=O)N[C@@H](Cc1ccc(O)cc1)C(=O)N[C@@H](CCCNC(=N)N)C(=O)N[C@@H](CCCNC(=N)N)C(N)=O [Guavanin 11] (H-RQLMELIEQAERYGNRFYRR-NH2) | > 200 µg/mL | > 200 µg/mL
CSCC[C@H](NC(=O)[C@H](CCCNC(=N)N)NC(=O)[C@H](CO)NC(=O)[C@@H](N)CO)C(=O)N[C@@H](CCC(=O)O)C(=O)N[C@@H](CS)C(=O)N[C@@H](Cc1ccc(O)cc1)C(=O)N[C@@H](CCC(=O)O)C(=O)N[C@@H](CCC(N)=O)C(=O)N[C@@H](C)C(=O)N[C@@H](CCC(=O)O)C(=O)N[C@@H](CCCNC(=N)N)C(=O)N[C@@H](Cc1ccc(O)cc1)C(=O)NCC(=O)N[C@@H](Cc1ccc(O)cc1)C(=O)NCC(=O)NCC(=O)N[C@@H](Cc1ccc(O)cc1)C(=O)NCC(=O)NCC(N)=O [Fragment 1 (α-helix)] (H-SSRMECYEQAERYGYGGYGG-NH2) | > 200 µg/mL | > 200 µg/mL
CC[C@H](C)[C@H](NC(=O)CNC(=O)[C@H](CCCNC(=N)N)NC(=O)[C@H](CCC(N)=O)NC(=O)CNC(=O)[C@H](CCCCN)NC(=O)[C@H](CCCNC(=N)N)NC(=O)[C@H](CC(C)C)NC(=O)[C@H](C)NC(=O)[C@H](CCCNC(=N)N)NC(=O)[C@H](CCC(=O)O)NC(=O)[C@H](Cc1ccc(O)cc1)NC(=O)[C@H](C)NC(=O)[C@H](CCC(=O)O)NC(=O)[C@H](Cc1ccc(O)cc1)NC(=O)[C@H](Cc1ccc(O)cc1)NC(=O)[C@H](CO)NC(=O)[C@@H](N)CCCNC(=N)N)C(=O)N[C@@H](CCCNC(=N)N)C(=O)N[C@@H](CCCNC(=N)N)C(N)=O [Guavanin 8] (H-RSYYEAYERALRKGQRGIRR-NH2) | 100 µg/mL (≈ 39.6 µM) | > 200 µg/mL
CC(C)C[C@H](NC(=O)[C@H](CCCCN)NC(=O)[C@@H](N)CCCNC(=N)N)C(=O)N[C@H](C(=O)N[C@@H](CCC(=O)O)C(=O)N[C@@H](CS)C(=O)N[C@@H](Cc1ccc(O)cc1)C(=O)N[C@@H](CCC(=O)O)C(=O)N[C@@H](CCCNC(=N)N)C(=O)N[C@@H](C)C(=O)N[C@@H](CCC(=O)O)C(=O)N[C@@H](CCCNC(=N)N)C(=O)N[C@@H](CC(=O)O)C(=O)N[C@@H](C)C(=O)N[C@@H](CC(N)=O)C(=O)N[C@@H](CCCNC(=N)N)C(=O)N[C@@H](CO)C(=O)NCC(=O)N[C@@H](CCCNC(=N)N)C(=O)N[C@@H](CCCNC(=N)N)C(N)=O)C(C)C [Guavanin 15] (H-RKLVECYERAERDANRSGRR-NH2) | 200 µg/mL (≈ 81.2 µM) | > 200 µg/mL
